For assay [1], the system named is Mus musculus. Nature of the assay: Range of survival days for antitumor activity against Ip implanted L1210 / 0 lymphoid leukemia in mice at a dose of 200 mg/kg per day after treatment 5;range is 15-16. Format: functional. As to conditions: route intraperitoneal.
Assay [2] relates to Mus musculus. Nature of the assay: Survival time treated for antitumor activity against Ip implanted L1210 / 0 lymphoid leukemia in mice at a dose of 200 mg/kg per day after treatment 1,15;27.5/7. Conditions: route intraperitoneal.
For assay [3], the system named is Mus musculus. Nature of the assay: Range of survival days for antitumor activity against Ip implanted L1210 / 0 lymphoid leukemia in mice at a dose of 100 mg/kg per day after treatment 1,8,15,22;range is 16-32. In kind it is functional. Conditions: route intraperitoneal.
The test system of assay [4] is Mus musculus. Nature of the assay: Increase of life span was determined against Ip implanted L1210 / 0 lymphoid leukemia in mice at a dose of 400 mg/kg per day after treatment 2. Format: functional. As to conditions: L1210/0, ip, route intraperitoneal.
Assay [5] deals with Mus musculus. Nature of the assay: Increase of life span was determined against Ip implanted L1210 / 0 lymphoid leukemia in mice at a dose of 100 mg/kg per day after treatment 1,5,9. Conditions: L1210/0, ip, route intraperitoneal. In kind it is functional.
In assay [6] the test system is Mus musculus. Nature of the assay: Increase of life span was determined against Ip implanted L1210 / 0 lymphoid leukemia in mice at a dose of 200 mg/kg per day after treatment 1,15. Format: functional. As to conditions: L1210/0, ip, route intraperitoneal.
Assay [7] deals with Mus musculus. Nature of the assay: Increase of life span was determined against Ip implanted L1210 / 0 lymphoid leukemia in mice at a dose of 100 mg/kg per day after treatment 1,8,15,22. In kind it is functional. As to conditions: L1210/0, ip, route intraperitoneal.
Assay [8] deals with Mus musculus. Nature of the assay: Survival time treated/survival time tested (T/C) for antitumor activity against Ip implanted L1210 / ara-C (II) lymphoid leukemia in mice at a dose of 300 mg/kg per day. Format: functional. Conditions: route intraperitoneal.
Assay [9] has as its system Mus musculus. Nature of the assay: Range of survival days for antitumor activity against Ip implanted L1210 / ara-C (II) lymphoid leukemia in mice at a dose of 300 mg/kg per day. Format: functional. Conditions: route intraperitoneal.
Assay [10] deals with Mus musculus. Nature of the assay: Increase of life span was determined against Ip implanted L1210 / 0 lymphoid leukemia in mice at a dose of 200 mg/kg per day after treatment 1,8,15,22. As to conditions: L1210/0, ip, route intraperitoneal. In kind it is functional.
The subject of assay [11] is Mus musculus. Nature of the assay: Survival time treated for antitumor activity against Ip implanted L1210 / 0 lymphoid leukemia in mice at a dose of 200 mg/kg per day after treatment 5;15/7. As to conditions: route intraperitoneal.
In assay [12] the test system is Mus musculus. Nature of the assay: Increase of life span was determined against Ip implanted L1210 / 0 lymphoid leukemia in mice at a dose of 400 mg/kg per day. Format: functional. As to conditions: L1210/0, ip, route intraperitoneal.
Assay [13] concerns Mus musculus. Nature of the assay: Survival time of treated mice for antitumor activity against Ip implanted L1210 / 0 lymphoid leukemia in mice at a dose of 400 mg/kg per day after treatment 1;29.5/7. Conditions: route intraperitoneal.
Assay [14] has as its system Mus musculus. Nature of the assay: Increase of life span was determined against Ip implanted L1210 / 0 lymphoid leukemia in mice at a dose of 200 mg/kg per day after treatment 5. In kind it is functional. As to conditions: L1210/0, ip, route intraperitoneal.
The subject of assay [15] is Mus musculus. Nature of the assay: Increase of life span was determined against Ip implanted L1210 / 0 lymphoid leukemia in mice at a dose of 400 mg/kg per day after treatment 1. Format: functional. Conditions: L1210/0, ip, route intraperitoneal.
Assay [16] deals with Mus musculus. Nature of the assay: Increase of life span was determined against Ip implanted L1210 / ara-C (I) lymphoid leukemia in mice at a dose of 400 mg/kg per day. In kind it is functional. Conditions: route intraperitoneal.
For assay [17], the system named is Mus musculus. Nature of the assay: Range of survival days for antitumor activity against Ip implanted L1210 / 0 lymphoid leukemia in mice at a dose of 300 mg/kg per day after treatment 1,15;range is 21->45. In kind it is functional. Conditions: route intraperitoneal.
In assay [18] the test system is Mus musculus. Nature of the assay: Median survival time for antitumor activity against Ip implanted L1210 / 0 lymphoid leukemia in mice at a dose of 300 mg/kg per day after treatment 1,15. As to conditions: route intraperitoneal.
The test system of assay [19] is Mus musculus. Nature of the assay: Increase of life span was determined against Ip implanted L1210 / 0 lymphoid leukemia in mice at a dose of 400 mg/kg per day after treatment -1. Format: functional. Conditions: L1210/0, ip, route intraperitoneal.
Assay [20] concerns Mus musculus. Nature of the assay: Range of survival days for antitumor activity against Ip implanted L1210 / ara-C (I) lymphoid leukemia in mice at a dose of 400 mg/kg per day. Format: functional. Conditions: route intraperitoneal.
The subject of assay [21] is Mus musculus. Nature of the assay: Increase of life span was determined against Ip implanted L1210 / ara-C (I) lymphoid leukemia in mice at a dose of 80 mg/kg per day. In kind it is functional. Conditions: route intraperitoneal.

The source of these data is ChEMBL document CHEMBL1124763, “Nucleoside conjugates. 11. Synthesis and antitumor activity of 1-beta-D-arabinofuranosylcytosine and cytidine conjugates of thioether lipids” (1990).

The term ILS denotes how much longer treated animals lived than controls.

As for `CCCCCCCCCCCCCCCCCCSCC(COP(=O)(O)OP(=O)(O)OC[C@H]1O[C@@H](n2ccc(N)nc2=O)[C@@H](O)[C@@H]1O)OC(=O)CCCCCCCCCCCCCCC` (mixture of isomers), the entries for the “Range of survival days” value in the assay on Mus musculus [1], in the assay on Mus musculus [3] and in the assay on Mus musculus [17] were 15, 16 and above 21, respectively. The values for the survival time in the assay on Mus musculus [2], in the assay on Mus musculus [11] and in the assay on Mus musculus [13] were 27.5 days, 15 days and 29.5 days, respectively. For the same compound, the increase in lifespan (ILS) at 400 mg/kg/day in the assay on Mus musculus [4] was 179%; in the assay on Mus musculus [12], above 507%; in the assay with Mus musculus [15], 321%; with Mus musculus [16], above 350%; in the assay with Mus musculus [19], 207%. Also, the increase in life span (ILS) at 100 mg/kg/day in the assay with Mus musculus [5] came out at 213%; in the assay on Mus musculus [7] it was 243%. Further, the values for the ILS at 200 mg/kg/day in the assay with Mus musculus [6], with Mus musculus [10] and with Mus musculus [14] were 293%, 250% and 114%, respectively. The figures for the median survival time in the assay with Mus musculus [8] and in the assay with Mus musculus [18] were 9 days and 24.5 days, respectively. The Range in the assay with Mus musculus [9] is listed as 8; in the assay with Mus musculus [20] it was above 45. In addition, in the assay with Mus musculus [21], the ILS at 80 mg/kg/day is above 350%.
